Measured values from patent US20200276165A1, “OVOTIOLS FOR THE TREATMENT OF CHRONIC LOW-GRADE SYSTEMIC INFLAMMATION (CLGSI) AND RELATED DISEASES” (UNIVERSITA' DEGLI STUDI G. D'ANNUNZIO CHIETI - PESCARA, priority 2017, published 2020).
Each block holds one compound with its values, some of them ahead of it.

How the values were obtained:
cGMP levels in C-HUVECs = test: Cyclic guanosine mono phosphate assay (cGMP), EIA; assay type: cell-based, human
Description: Cyclic guanosine mono phosphate assay (cGMP): intracellular cGMP levels were evaluated by using a commercially available Enzyme Immunoassay (EIA) kit (GE Healthcare, Little Chalfont, Buckinghamshire, UK).

[1] = test system: U937 monocytes adhesion to GD-HUVECs; test: Adhesion of monocytes to endothelium assay; assay type: cell-based, human; settings: GD-HUVEC, 24 hours pre-treatment with 10 and 50 μM, TNFα 1 ng/ml 16 hours
Text: (§1) Cell endothelial cultures and experimental protocols: umbilical cords were obtained from randomly selected healthy Caucasian (Control, C) and with Gestational Diabetes (GD) mothers delivering at the Hospital of Chieti and Pescara. All procedures were in agreement with the ethical standards of the Institutional Committee on Human Experimentation (Reference Number: 1879/09COET) and with the Declaration of Helsinki Principles. After approval of the protocol by the Institutional Review Board, signed informed consent was obtained from each participating subject. Primary C- and GD-HUVECs were obtained and used between the 3rd and 5th passages in vitro. […]
(§2) Adhesion of monocytes to endothelium assay: adhesion of U937 monocytes to C- and GD-HUVECs was evaluated in the basal state, after 16 hours of TNFα treatment (1 ng/ml) and in presence of ovothiol A (10-50 μM). The cells were grown to confluence in six-well culture plates and U937 adhesion was evaluated as previously described (Di Tomo, P., Lanuti, P., Di Pietro, N., Baldassarre, M. P. A., Marchisio, M., Pandolfi, A., Consoli, A., Formoso, G. (2017) Liraglutide mitigates TNF-α induced pro-atherogenic changes and Microvesicles release in HUVEC from diabetic women. Diabetes Metab. Res. Rev. doi: 10.1002/dmrr.2925).

[2] = test system: U937 monocytes adhesion to C-HUVECs; test: Adhesion of monocytes to endothelium assay; assay type: cell-based, human; settings: C-HUVEC, 24 hours pre-treatment with 10 and 50 μM, TNFα 1 ng/ml 16 hours
Text: as §1, §2

GD-HUVECs [3] = test: MTT assay, cell viability; assay type: cell-based, human; settings: GD-HUVEC
Text: (§3) Cell endothelial cultures and experimental protocols: umbilical cords were obtained from randomly selected healthy Caucasian (Control, C) and with Gestational Diabetes (GD) mothers delivering at the Hospital of Chieti and Pescara. All procedures were in agreement with the ethical standards of the Institutional Committee on Human Experimentation (Reference Number: 1879/09COET) and with the Declaration of Helsinki Principles. After approval of the protocol by the Institutional Review Board, signed informed consent was obtained from each participating subject. Primary C- and GD-HUVECs were obtained and used between the 3rd and 5th passages in vitro. To evaluate the potential cytotoxicity of ovothiol, HUVECs were stimulated for 24 h with different doses (10-100 μM) of ovothiol A. The best doses of ovothiol A were used to evaluate their effects on the cells treated with TNF (1 ng/ml, Sigma Aldrich) which activated the inflammatory response. Briefly, HUVECs were grown to sub-confluence in complete culture medium DMEM/M199 (Mascia Brunelli, Italia). The cells were pre-incubated with ovothiol A (10 and 50 μM) for 24 hours or with medium alone as basal condition. Subsequently the cells were stimulated with TNF for 16 hours.
(§4) MTT assay: ovothiol effect on the viability of C- and GD-HUVECs was evaluated by the 3-(4,5 dimethylthiazolyl-2)-2,5-diphenyltetrazolium bromide (MTT, Sigma-Aldrich) assay. 1×10^5 cells were plated in 96-well plates, grown to sub-confluence with the medium alone (as control) or stimulated for 24 h with growing doses of ovothiol A (10-100 μM), in the presence or absence of TNFα stimulation (1 ng/ml). A solution of MTT in phosphate buffer saline (PBS) was added to each well to a final concentration of 5 mg/ml. After 3 h incubation at 37° C., the cellular viability was evaluated before addition of 0.2 ml dimethylsulfoxide (DMSO, Sigma-Aldrich) for crystal solubilization in the vital cells. The absorbance at 540 nm was read using a micro-plate reader (SpectraMAX 190, Molecular Devices Inc., Sunnyvale, Calif., USA) and results were expressed as the absorbance at 540 nm (ABS 540 nm).

C-HUVECs [4] = test: MTT assay, cell viability; assay type: cell-based, human; settings: C-HUVEC
Text: as §3, §4

[5] = Ovothiol A level in medium without the cells (HPLC); assay type: in vitro ADME; settings: Control: medium without the cells, ovothiol A 50 μM
Description: (§5) Analysis of Ovothiol A levels in cell cultures: HUVEC cells (1,2×10^6 cellule) were cultured in flasks (25 cm^2) in the absence and in the presence of 50 μM ovothiol A and collected after incubation at different time intervals. The culture media were recovered by centrifugation and frozen for ovothiol A quantitation by HPLC analysis. The cellular pellets were resuspended in PBS pH 7.5, sonicated three times for 15 sec and 30% amplitude. The samples were then centrifuged at 13.000 rpm over 15 min to remove cellular debris, ultrafiltered by Microcon 3 to remove all molecules with MW>3 kDa and frozen for further analysis by HPLC. HPLC analyses were performed in duplicate on an LC10AD instrument equipped with binary pumps and a Shimadzu SPD-10AVP detector set at 254 nm and 280 nm. A Phenomenex Synergi Sphereclone octadecylsilane (25 cm×0.46 cm, 4 μm particle size) column was used with 1% formic acid taken to pH 4.5 with ammonia, as the eluant, at a 0.7 mL/min flow rate.

ICAM-1 on C-HUVEC = test: Flow cytometry, membrane exposure of ICAM-1; assay type: cell-based, human; settings: 50 μM ovothiol A, TNFα
Text: as §1
(§6) Flow cytometry: for flow cytofluorimetry analysis, C- and GD-HUVECs were stimulated as described in the experimental protocols. […] The intracellular levels of peroxynitrite (ONOO—) were detected in C- and GD-HUVECs by using the HKGreen-4A probe (10 μM, 30 min at 37° C.) synthesized and provided by the laboratory of Prof. […] Reactive Oxygen Species (ROS) levels were evaluated with the fluorogenic reagent dichlorofluorescein diacetate (DCF-DA, Sigma-Aldrich) (20 μM, 45 min at 37° C.). All samples were analyzed using a FACS Calibur or FACS Canto II (BD Bioscences). The levels of membrane proteins (VCAM-1 and ICAM-1), fluorescence detection of ONOO— and ROS were evaluated by cytometric analysis of over 10.000 events for each sample. […]

ICAM-1 on GD-HUVEC = test: Flow cytometry, membrane exposure of ICAM-1; assay type: cell-based, human; settings: 50 μM ovothiol A, TNFα
Text: as §1, §6

VCAM-1 on GD-HUVEC = test: Flow cytometry, membrane exposure of VCAM-1; assay type: cell-based, human; settings: 50 μM ovothiol A, TNFα
Text: as §1, §6

VCAM-1 on C-HUVEC = test: Flow cytometry, membrane exposure of VCAM-1; assay type: cell-based, human; settings: 50 μM ovothiol A, TNFα
Text: as §1, §6

ROS in C-HUVECs = test: ROS levels by flow cytometry (DCF-DA); assay type: cell-based, human; settings: C-HUVEC, in the absence of TNFα
Text: as §1, §6

ROS in GD-HUVECs = test: ROS levels by flow cytometry (DCF-DA); assay type: cell-based, human; settings: GD-HUVEC, under inflammatory conditions (TNFα)
Text: as §1, §6

Hep-G2 cell line = settings: epatocarcinoma cell lines; cited from earlier work
[6] = test system: peroxynitrite in C-HUVECs; test: Peroxynitrite levels by flow cytometry, HKGreen-4A probe; assay type: cell-based, human; settings: C-HUVEC
Text: as §3
(§7) Flow cytometry: for flow cytofluorimetry analysis, C- and GD-HUVECs were stimulated as described in the experimental protocols. Non-permeabilized cells were detached by tetra-acetic ethylene-diamine acid solution (EDTA) 5 mM, washed and resuspended in bovine serum albumin (BSA) 0.5%. Cells harvested by centrifugation at 800 rpm for 15 min were incubated with anti-VCAM-1 PE-conjugate (1:100, phycoerythrin; Biolegend, San Diego, Calif., USA) and anti-ICAM-1 FITC-conjugate (1:100, fluorescein isothiocyanate; Biolegend) antibodies, both for 30 min at 4° C. The intracellular levels of peroxynitrite (ONOO—) were detected in C- and GD-HUVECs by using the HKGreen-4A probe (10 μM, 30 min at 37° C.) synthesized and provided by the laboratory of Prof. Dan Yang's. Reactive Oxygen Species (ROS) levels were evaluated with the fluorogenic reagent dichlorofluorescein diacetate (DCF-DA, Sigma-Aldrich) (20 μM, 45 min at 37° C.). All samples were analyzed using a FACS Calibur or FACS Canto II (BD Bioscences). The levels of membrane proteins (VCAM-1 and ICAM-1), fluorescence detection of ONOO— and ROS were evaluated by cytometric analysis of over 10.000 events for each sample. All data were analyzed using FACS Diva (BD Bioscences) and FlowJo v.8.8.6 software (TreeStar, Ashland, Oreg.) and expressed as percentage (%) of positive cells or MFI (Mean Fluorescence Intensity) Ratio. The MFI Ratio was calculated by dividing the MFI of positive events by the MFI of negative events (MFI of secondary antibody).

[7] = test system: peroxynitrite in GD-HUVECs; test: as above; assay type: cell-based, human; settings: GD-HUVEC
Text: as §3, §7

GD-HUVECs [8] = test: Analysis of ovothiol A levels in cell cultures (HPLC); assay type: in vitro ADME, human
Description: as §5

C-HUVECs [9] = test: as above; assay type: in vitro ADME, human
Description: as §5

[10] = test system: intracellular GSH in GD-HUVECs; test: Determination of intracellular glutathione levels (GSH); assay type: cell-based, human; settings: GD-HUVEC, after 10 minutes of incubation of ovothiol A
Description: as §5, with “A Phenomenex Synergi Sphereclone octadecylsilane (25 cm×0.46 cm, 4 μm particle size) column was used with 1% formic acid taken to pH 4.5 with ammonia, as the eluant, at a 0.7 mL/min flow rate.” left out
Determination of intracellular glutathione levels (GSH): total GSH was determined by using the Glutathione Assay Kit (Sigma). […] The supernatant was used for the determination of glutathione by performing a kinetic assay in which catalytic amounts (nmoles) of GSH caused a continuous reduction of 5,5-dithiobis (2-nitrobenzoic acid) (DTNB) to 5-thio-2-nitrobenzoic (TNB), measured at 405 nm by a Thermo Scientific™ Multiskan™ FC Microplate Photometer.

[11] = 50 μM, in the presence or absence of TNFα
[12] = pre-treatment with 50 μM, after exposure to TNFα
[13] = GD-HUVECs incubated 30 minutes with ovothiol A 50 μM, HPLC
[14] = C-HUVECs incubated 30 minutes with ovothiol A 50 μM, HPLC
[15] = Ionomycin 50 nM in combination with PMA 0.3 μM, positive control

Compound: COC(=O)[C@@H](N)CCCNC(=N)N[N+](=O)[O-] [L-NAME, reference compound]
- cGMP levels, addition of L-NAME to Ionomycin (cGMP levels in C-HUVECs; C-HUVEC, Ionomycin-stimulated): restored the initial levels

- ovothiol A in medium [5]: 45 µmol/L
- kinetic decay of the compound in the medium (GD-HUVECs [8]; GD-HUVEC medium, 50 μM, compared to the medium without the cells): very rapid
- ovothiol A in cells (GD-HUVECs [8]; [13]): 1.53 pmol/cell
- ovothiol A in medium (GD-HUVECs [8]; [13]): 10.08 ± 1.68 µmol/L
- kinetic decay of the compound in the medium (C-HUVECs [9]; C-HUVEC medium, 50 μM, compared to the medium without the cells): very rapid
- ovothiol A in cells (C-HUVECs [9]; [14]): 1.18 pmol/cell
- ovothiol A in medium (C-HUVECs [9]; [14]): 14.86 ± 1.24 µmol/L
Compound: ovothiol A
- U937 cell adhesion (number of adherent cells) [1]: significant reduction
- U937 cell adhesion (number of adherent cells) [2]: only on GD-HUVECs
- cell viability parameters (MTT) (GD-HUVECs [3]; [11]): no significant changes
- cytotoxicity (viability by MTT assay) (GD-HUVECs [3]; 100 μM ovothiol A, 24 h): cytotoxic
- cell viability parameters (MTT) (C-HUVECs [4]; [11]): no significant changes
- cytotoxicity (viability by MTT assay) (C-HUVECs [4]; 100 μM ovothiol A, 24 h): cytotoxic
- cGMP levels, effect of ovothiol A with TNFα treatment (cGMP levels in C-HUVECs; C-HUVEC, TNFα+Ovot): abolished
- cGMP levels (cGMP levels in C-HUVECs; C-HUVEC, ovothiol A treatment): significantly increased
- cGMP levels, effect of ovothiol A with L-NAME pre-incubation (cGMP levels in C-HUVECs; pre-incubation with L-NAME 1 mM for 45 minutes): not affected
- effect on ICAM-1 levels (membrane exposure) (ICAM-1 on C-HUVEC): did not reach the statistical significance
- effect on ICAM-1 levels (membrane exposure) (ICAM-1 on GD-HUVEC): did not reach the statistical significance
- exposure of VCAM-1 on the membrane (VCAM-1 on GD-HUVEC): significantly reduced
- exposure of VCAM-1 on the membrane (VCAM-1 on C-HUVEC): significantly reduced
- ROS levels (ROS in C-HUVECs): reduced ROS levels
- ROS levels (ROS in GD-HUVECs): reduced ROS levels
- autophagy (Hep-G2 cell line): induces autophagy
- reduction of reactive oxygen species (Hep-G2 cell line): without inducing a reduction of reactive oxygen species
- levels of peroxynitrite [6, 12]: significantly reduced
- levels of peroxynitrite [7, 12]: significantly reduced
- intracellular GSH levels [10]: increased significantly

Compound: C[C@H](CCC(=O)O)C[C@H](C)C[C@H](C)C(=O)/C=C(\O)[C@H](C)C[C@H](C)C/C=C/[C@@H](C)[C@@H](O)[C@@H](C)[C@@H](O)C[C@@H]1CC[C@@](C)([C@H]2CC[C@@](C)([C@@H](C)O)O2)O1 [Ionomycin, reference compound]
- cGMP levels (cGMP levels in C-HUVECs; C-HUVEC, positive control): induced the increase of cGMP levels
- peroxynitrite formation [6, 15]: induced peroxynitrite formation
- peroxynitrite formation [7, 15]: induced peroxynitrite formation
